Earlier results as cited in patent publication US20080254117A1, “PROCESS FOR PREPARING PRAMIPEXOLE DIHYDROCHLORIDE TABLETS” (priority 2007, published 2008).
Where a name gives a salt, the structure may show the parent alone.

Tests used:
[1] = not given; remark: listed apart in the source

| Structure (SMILES) | solubility in buffer media (between pH 2 and pH 7.4) | Water solubility (water) | light sensitivity in solution ([1]; in solution) | stability in the solid state ([1]; solid state) |
| --- | --- | --- | --- | --- |
| CCCN[C@H]1CCc2nc(N)sc2C1 [Pramipexole dihydrochloride monohydrate, pramipexole dihydrochloride monohydrate] | above 10 mg/mL | more than 20 mg/mL | – | – |
| CCCN[C@H]1CCc2nc(N)sc2C1 [Pramipexole, (S)-2-amino-4,5,6,7-tetrahydro-6-(propylamino)benzothiazole] | – | – | light sensitive | very stable in the solid state |
